Reference: the supplement of paper PMC10949913

Legend:
Assay in all cases: area under concentration-response curve (viability) (AUC (a.u.)); higher = less active
Details in all cases: 48 h
CU-ACC2 = tested on: CU-ACC2
Outline: (§1)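 Luminescence from CellTiter-Glo, read after 48 h, measured three adrenocortical carcinoma cell lines treated in 1,536-well plates with library compounds at 11 concentrations. Values were normalised per plate to vehicle and empty-well controls. The AC50 and area under the curve come from fitted concentration-response curves in inhibitory or non-responding classes only.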

NCI-H295R = tested on: NCI-H295R
Outline: as §1

CU-ACC1 = tested on: CU-ACC1
Outline: as §1

| SMILES | area under concentration-response curve (CU-ACC2) | area under concentration-response curve (NCI-H295R) | area under concentration-response curve (CU-ACC1) |
| --- | --- | --- | --- |
| COc1nccc(-c2c(-c3ccc(F)cc3)ncn2C2CCC(O)CC2)n1 (stereo unspecified) | 590 | 550 | 523 |
| O=C1C[C@@H](c2ccc(O)cc2)Oc2cc(O)cc(O)c21 | 484 | 485 | 345 |
| Cc1cc(/C=c2/sc3nc4ccccc4n3c2=O)c(C)n1-c1ccccc1 | 625 | 549 | 569 |
| CN1N(C2=CC=CC=C2)C(=O)C(=C1/C3=CC=CC=C3)/C(=O)C4=CC=C(C)C(=C4N)C5=CC=C6N=C(C)C=CC6=C5 | 634 | 553 | 531 |
| NC(=O)[C@@H](CC1CC1)[C@@H](CCC(F)(F)F)C(=O)N[C@H]2\N=C(C3=CC=CC=C3)/C4=CC=CC(=C4NC2=O)F | 573 | 541 | 543 |
| Cc1coc2c1C(=O)C(=O)c1c-2ccc2c1CCCC2(C)C | 479 | 456 | 433 |
| CNC(=O)[C@H](Cc1c[nH]c2ccccc12)NC(=O)[C@@H](CC(=O)NO)CC(C)C | 492 | 460 | 473 |
| Cc1ccc(O)c(C(CCN(C(C)C)C(C)C)c2ccccc2)c1.Cl (stereo unspecified) | 625 | 558 | 491 |
| COc1cc(CNC(=O)CCCC/C=C/C(C)C)ccc1O | 653 | 599 | 542 |
| C=CC[N+]1([C@H]2C[C@H]3[C@@H]4CC[C@H]5C[C@H](O)[C@@H](N6CCOCC6)C[C@]5(C)[C@H]4CC[C@]3(C)[C@H]2OC(C)=O)CCCC1 | 639 | 610 | 597 |
| COc1cc(C(C)C)c(Oc2cnc(NC(CO)CO)nc2N)cc1I | 661 | 594 | 557 |
| N[S+](=O)([O-])c1cc(Cl)c(Cl)c([S+](N)(=O)[O-])c1 | 528 | 524 | 459 |
| Cc1cnc(NC(=O)C2=C(O)c3ccccc3S(=O)(=O)N2C)s1 | 409 | 396 | 393 |
| CC(=O)N1c2ccc(-c3ccc(C(=O)O)cc3)cc2[C@H](Nc2ccc(Cl)cc2)C[C@@H]1C | 548 | 497 | 380 |
| CC(C)C(=O)OCC(=O)[C@@]12O[C@@H](O[C@@H]1C[C@H]3[C@@H]4CC\C5=C\C(=O)\C=C/[C@]5(C)[C@H]4[C@@H](O)C[C@]23C)C6CCCCC6 | 606 | 531 | 523 |
| NCC[S+](=O)([O-])O | 585 | 488 | 495 |
| CO[C@@H]1[C@H](N(C)C(=O)c2ccccc2)C[C@H]2O[C@]1(C)n1c3ccccc3c3c4c(c5c6ccccc6n2c5c31)C(=O)NC4 | 476 | 492 | 522 |
| O=C(O)c1ccccc1C(=O)Nc1ccc(-c2ccccc2)cc1 | 580 | 491 | 514 |
| CC(C)(CO)[C@@H](O)C(=O)NCCC(=O)O | 487 | 509 | 506 |
| OCCn1cc(-c2cnc3nnn(Cc4ccc5ncccc5c4)c3n2)cn1 | 600 | 543 | 497 |
| CNC[C@H](O)c1cccc(O)c1 | 508 | 449 | 440 |
| C[C@]12C[C@H](O)[C@H]3[C@@H](CC\C4=C\C(=O)\C=C/[C@]34C)[C@@H]1CC[C@]2(O)C(=O)CO | 590 | 545 | 496 |
| C[C@H]1O[C@H]([C@H](O)[C@@H]1O)N2\C=C(F)/C(=O)NC2=O | 621 | 550 | 559 |
| NC12CC3CC(CC(C3)C1)C2 | 509 | 523 | 466 |

| SMILES | area under concentration-response curve (CU-ACC2) | area under concentration-response curve (NCI-H295R) | area under concentration-response curve (CU-ACC1) |
| --- | --- | --- | --- |
| C[S+](=O)([O-])N(Cc1ccco1)CC(O)Cn1c2ccccc2c2ccccc21 (stereo unspecified) | 515 | 473 | 477 |
| Cc1ccc(Nc2nccc(N(C)c3ccc4c(C)n(C)nc4c3)n2)cc1[S+](N)(=O)[O-] | 620 | 570 | 516 |
| N[S+]([O-])(=O)C1=C(Cl)C=C2\N=C/N[S+]([O-])(=O)C2=C1 | 646 | 576 | 548 |
| NC1=NC=CC2=C1N=C[N]2[C@@H]3\C=C(CO)/[C@@H](O)[C@H]3O | 454 | 403 | 448 |
| Cc1c(F)cc(C(=O)NC2CC2)cc1-c1ccc(C(=O)NCC(C)(C)C)cn1 | 427 | 394 | 389 |
| CC[C@H](/C=C/[C@@H](C)[C@H]1CC[C@H]2[C@@H]3CC=C4C[C@@H](O)CC[C@]4(C)[C@H]3CC[C@]12C)C(C)C | 612 | 602 | 550 |
| CC(C)(Sc1ccc(CCN(CCCCC2CCCCC2)C(=O)NC2CCCCC2)cc1)C(=O)O | 585 | 501 | 506 |
| Clc1ccc2ncc(-c3cccc(NC4CNC4)n3)n2c1 | 644 | 576 | 522 |
| COCCOc1ccc(N2CCN(CCn3ncc4c3nc(N)n3nc(-c5ccco5)nc43)CC2)cc1 | 606 | 530 | 552 |
| OC(=O)C1=CC=C(NC2=NC3=C(C\N=C(/C4=CC(=CC=C34)Cl)C5=C(F)C=CC=C5F)C=N2)C=C1 | 559 | 517 | 504 |
| CCN1\C(=C(C(=O)NC)/C(=O)C2=C1N=C(C=C2)C#CC(C)(O)COC)N (stereo unspecified) | 579 | 510 | 482 |
| COc1cc([S+](C)(=O)[O-])ccc1Nc1nc2ccc(-c3ccc(NC(=O)[C@H](C)c4ccc(F)cc4)cc3)cn2n1 | 648 | 567 | 565 |
| Cc1nc[nH]c1CN1CCN(C(=O)N[C@@H](CC(C)C)C(=O)O)[C@@H](Cc2ccccc2)C1=O | 621 | 545 | 576 |
| CC(O)(C[S+](=O)([O-])c1ccc(F)cc1)C(=O)Nc1ccc(C#N)c(C(F)(F)F)c1 (stereo unspecified) | 482 | 447 | 454 |
| CN(N=O)C(=O)N[C@@H]1[C@@H](O)[C@H](O)[C@@H](CO)O[C@@H]1O | 590 | 548 | 502 |
| O=C(O)c1ccc(CN2CCC(CN[C@@H]3C[C@H]3c3ccccc3)CC2)cc1 | 540 | 490 | 465 |
| Oc1ccc(OCc2ccccc2)cc1 | 353 | 417 | 378 |
| Cc1cnc(Nc2cccc(CN3CCOCC3)c2)nc1Nc1cccc([S+](=O)([O-])NC(C)(C)C)c1 | 508 | 467 | 453 |
| COC(=O)Nc1nc2cc(C(=O)c3ccc(F)cc3)ccc2[nH]1 | 574 | 462 | 570 |
| C=C[C@H]1CN2CCC1C[C@@H]2[C@@H](O)c1ccnc2ccccc12 (stereo partly specified) | 522 | 486 | 455 |
| CC(=O)O[C@@]12CO[C@@H]1C[C@H](O)[C@]3(C)[C@@H]2[C@H](OC(=O)C4=CC=CC=C4)[C@]5(O)C[C@H](O)/C(=C(/[C@@H](O)C3=O)C5(C)C)C | 539 | 491 | 507 |
| O=C(O)CNC(=O)c1nc(Cl)c2ccccc2c1O | 604 | 529 | 498 |
| N\C1=N\C2=C(N=C[N]2COCCO)C(=O)N1 | 616 | 584 | 420 |
